Patent US5032577A, “Peptidylaminodiols” (Abbott Laboratories, priority 1987, dated 1991)
Structures can show the parent of a compound that is named as a salt.

The compounds below were run against T1, human renal renin (Homo sapiens, UniProt P00797) (assay: Inhibition of human renal renin in vitro; angiotensin I formed measured by radioimmunoassay). Settings: not given.
T1 construct: human renal renin, free from acid proteolytic activity; from tissue
T1 sequence (P00797 67-406): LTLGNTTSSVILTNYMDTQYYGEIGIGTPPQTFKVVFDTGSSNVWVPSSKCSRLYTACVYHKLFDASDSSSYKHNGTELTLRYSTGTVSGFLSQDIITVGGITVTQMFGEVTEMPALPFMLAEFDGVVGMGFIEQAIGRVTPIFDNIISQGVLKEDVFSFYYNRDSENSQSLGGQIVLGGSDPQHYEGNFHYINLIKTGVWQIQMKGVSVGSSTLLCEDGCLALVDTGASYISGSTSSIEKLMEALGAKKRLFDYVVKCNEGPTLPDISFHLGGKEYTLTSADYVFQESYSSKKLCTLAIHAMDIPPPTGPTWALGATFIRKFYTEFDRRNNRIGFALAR
Type: biochemical

In order of falling IC50:
1. CC(=O)N(C)[C@@H](Cc1ccccc1)C(=O)N[C@@H](Cc1c[nH]cn1)C(=O)N[C@@H](CC1CCCCC1)[C@@H](O)[C@@H](O)CC(C)C [Example 23, Acetyl-N-methylPhe-His Amide of 2(S)-Amino-1-cyclohexyl-3(R),4(S)-dihydroxy-6-methylheptane]  10 nM
2. CC(C)C[C@H](NC(=O)[C@@H](N)Cc1ccccc1)C(=O)N[C@@H](CC1CCCCC1)[C@@H](O)[C@@H](O)CC(C)C [Example 57, H-Phe-Leu Amide of 2(S)-Amino-l-cyclohexyl-3(R),4(S)-dihydroxY-6-methylheptane]  7.5 nM
3. CC(C)C[C@H](O)[C@H](O)[C@H](CC1CCCCC1)NC(=O)[C@H](Cc1c[nH]cn1)NC(=O)C(CC(=O)N1CCOCC1)Oc1ccccc1 (single isomer, unassigned) [Example 141]  5.5 nM
4. COc1ccc(C[C@@H](C(=O)N[C@@H](CC(C)C)C(=O)N[C@@H](CC2CCCCC2)[C@@H](O)[C@@H](O)CC(C)C)N(C)C)cc1 [Example 56, (N,N-Dimethyl,4-methoxy)-Phe-Leu Amide of 2(S)-Amino-1-cyclohexyl-3(R),4(S)-dihydroxy-6-methylheptane]  5.5 nM
5. CNCC(=O)N[C@@H](Cc1ccccc1)C(=O)N[C@@H](Cc1c[nH]cn1)C(=O)N[C@@H](CC1CCCCC1)[C@@H](O)[C@@H](O)CC(C)C [Example 64, H-Sar-Phe-His Amide of 2(S)-Amino-l-cyclohexyl-3(R),4(S)-dihydroxy-6-methylheptane Diacetic Acid Salt]  3 nM
6. COc1ccc(C[C@H](N)C(=O)N[C@@H](CC(C)C)C(=O)N[C@@H](CC2CCCCC2)[C@@H](O)[C@@H](O)CC(C)C)cc1 [Example 55, H-(4-OCH3)Phe-Leu Amide of 2(S)-Amino-1-cyclohexyl-3(R),4(S)-dihydroxy-6-methylheptane]  2 nM
7. CC(C)C[C@H](O)[C@H](O)[C@H](CC1CCCCC1)NC(=O)[C@H](Cc1c[nH]cn1)NC(=O)[C@H](CC1CCCCC1)NC(=O)CC(C)(C)C [Example 21, TBA-CHA-His Amide of 2(S)-Amino-l-cyclohexyl-3(R),4(S)-dihydroxy-6-methylheptane]  2 nM
8. CC(=O)O[C@@H](Cc1ccccc1)C(=O)N[C@@H](Cc1c[nH]cn1)C(=O)N[C@@H](CC1CCCCC1)[C@@H](O)[C@@H](O)CC(C)C [Example 24, Ac-Pl-His Amide of 2(S)-Amino-l-cyclohexyl-3(R),4(S)-dihydroxy-6-methylheptane]  2 nM
9. CC(C)C[C@H](O)[C@H](O)[C@H](CC1CCCCC1)NC(=O)[C@H](Cc1c[nH]cn1)NC(=O)C(NC(=O)N1CCOCC1)C(C)(C)c1ccccc1 (stereo partly drawn) [Example 178, 2(R,S)-[[(4-Morpholinyl)carbonyl]amino]-3,3-dimethyl-3-phenylpropionyl-His Amide of 2(S)-Amino-l-cyclohexyl-3(R),4(S)-dihydroxy-6-methylheptane]  2 nM
10. CC(C)C[C@H](O)[C@H](O)[C@H](CC1CCCCC1)NC(=O)[C@H](Cc1c[nH]cn1)NC(=O)[C@H](Cc1ccccc1)NC(=O)CCN [Example 62, H-β-Ala-Phe-His Amide of 2(S)-Amino-l-cyclohexyl-3(R), 4(S)-dihydroxy-6-methylheptane Diacetic Acid Salt]  2 nM
11. CC(C)C[C@H](O)[C@H](O)[C@H](CC1CCCCC1)NC(=O)[C@H](Cc1c[nH]cn1)NC(=O)[C@H](Cc1ccccc1)NC(=O)COCC(=O)O [Example 186, Carboxymethoxymethylcarbonyl-Phe-His Amide of 2(S)-Amino-1-cyclohexyl-3(R),4(S)-dihydroxy-6-methylheptane]  2 nM
12. COC(=O)C(N)CCCCC(=O)N[C@@H](Cc1ccc(OC)cc1)C(=O)N[C@@H](CC(C)C)C(=O)N[C@@H](CC1CCCCC1)[C@@H](O)[C@@H](O)CC(C)C (stereo partly drawn) [Example 193, 6-Amino-6-(methoxycarbonyl)hexanoyl-(4-OMe)Phe-Leu Amide of 2(S)-Amino-l-cyclohexyl-3(R),4(S)-dihydroxy-6-methylheptane]  0.74 nM
13. COC(=O)C(CCCCC(=O)N[C@@H](Cc1ccc(OC)cc1)C(=O)N[C@@H](CC(C)C)C(=O)N[C@@H](CC1CCCCC1)[C@@H](O)[C@@H](O)CC(C)C)NC(=O)OCc1ccccc1 (stereo partly drawn) [Example 192, 6-(BenzYloxYcarbonyl)amino-6-(methoxycarbonyl)hexanoyl-(4-OMe)Phe-Leu Amide of 2(S)-Amino-l-cyclohexyl-3(R),4(S)-dihydroxy-6-methylheptane]  0.61 nM
14. CC(C)C[C@H](O)[C@H](O)[C@H](CC1CCCCC1)NC(=O)[C@H](Cc1c[nH]cn1)NC(=O)[C@H](Cc1ccccc1)NC(=O)OCc1ccccc1 [Example 83, Cbz-Phe-His Amide of 2(S)-Amino-l-cyclohexyl-3(R), 4(S)-dihydroxy-6-methylheptane]  0.6 nM
15. CC(C)C[C@H](NC(=O)[C@H](Cc1ccccc1)NC(=O)CCCC(=O)O)C(=O)N[C@@H](CC1CCCCC1)[C@@H](O)[C@@H](O)CC(C)C [Example 184, 4-Carboxybutyroyl-Phe-Leu Amide of 2(S)-Amino-l-cyclohexyl-3(R),4(S)-dihydroxy-6-methylheptane]  0.59 nM
16. CC(C)C[C@H](O)[C@H](O)[C@H](CC1CCCCC1)NC(=O)[C@H](Cc1c[nH]cn1)NC(=O)[C@H](Cc1ccccc1)NC(=O)CCNC(=O)OCc1ccccc1 [Example 61, Cbz-β-Ala-Phe-His Amide of 2(S)-Amino-l-cyclohexyl-3(R),4(S)-dihydroxy-6-methylheptane]  0.55 nM
17. CCOC(=O)[C@H](C)N[C@@H](Cc1ccccc1)C(=O)N[C@@H](Cc1c[nH]cn1)C(=O)N[C@@H](CC1CCCCC1)[C@@H](O)[C@@H](O)CC(C)C [Example 185B, [l(S)-(Ethoxycarbonyl)-ethyl]-Phe-His Amide of 2(S)-Amino-1-cyclohexyl-3(R),4(S)-dihydroxy-6-methylheptane]  0.51 nM
18. CC(C)C[C@H](O)[C@H](O)[C@H](CC1CCCCC1)NC(=O)[C@H](Cc1c[nH]cn1)NC(=O)[C@H](Cc1ccccc1)NC(=O)[C@@H]1CCCN1C(=O)OCc1ccccc1 [Example 76, Cbz-Pro-Phe-His Amide of 2(S)-Amino-l-cyclohexyl-3(R), 4(S)-dihydroxy-6-methyl- heptane]  0.5 nM
19. CC(C)C[C@H](O)[C@H](O)[C@H](CC1CCCCC1)NC(=O)[C@H](Cc1c[nH]cn1)NC(=O)[C@H](Cc1ccccc1)OC(=O)N1CCOCC1 [Example 111, 2(S)-[(4-Morpholinyl)carbonyl]oxy-3-phenylpropionyl-His Amide of 2(S)-Amino-l-cyclohexyl-3(R),4(S)-dihydroxy-6-methylheptane]  0.5 nM
20. CC(C)C[C@H](NC(=O)[C@H](Cc1ccccc1)NC(=O)OCCCOC(=O)CNC(=O)OCc1ccccc1)C(=O)N[C@@H](CC1CCCCC1)[C@@H](O)[C@@H](O)CC(C)C [Example 92, Cbz-Gly Ester of the Resultant Compound of Example 91 (at 3-Hydroxypropyloxy Group)]  0.5 nM
21. CC(C)C[C@H](O)[C@H](O)[C@H](CC1CCCCC1)NC(=O)[C@H](Cc1cnc[nH]1)NC(=O)[C@H](Cc1ccccc1)NC(=O)N1CCOCC1 [Example 118, [(4-Morpholinyl)carbonyl]-phe-His Amide of 2(S)-Amino-1-cyclohexyl-3(R),4(S)-dihydroxy-6-methylheptane]  0.5 nM
22. CC(C)C[C@H](O)[C@H](O)[C@H](CC1CCCCC1)NC(=O)[C@H](Cc1c[nH]cn1)NC(=O)[C@H](Cc1ccccc1)NC(=O)CN(C)C(=O)OCc1ccccc1 [Example 63, Cbz-Sar-phe-His Amide of 2(S)-Amino-l-cyclohexyl-3(R),4(S)-dihydroxy-6-methylheptane]  0.45 nM
23. CC(C)C[C@H](O)[C@H](O)[C@H](CC1CCCCC1)NC(=O)[C@H](Cc1c[nH]cn1)NC(=O)[C@H](Cc1ccccc1)NC(=O)CC(C)(C)N [Example 75, H-[(β,β-di-Me)-β-Ala]-Phe-His Amide of 2(S)-Amino-1-cyclohexyl-3(R),4(S)-dihydroxy-6-methylheptane Diacetic Acid Salt]  0.4 nM
24. COCCOCOCCN(C)C(=O)C[C@@H](Cc1ccccc1)C(=O)N[C@@H](Cc1c[nH]cn1)C(=O)N[C@@H](CC1CCCCC1)[C@@H](O)[C@@H](O)CC(C)C [Example 214, (2R)-2-Benzyl-3-(N-methyl-N-2-methoxyethoxymethoxyethylamino-carbonyl)propionyl-His Amide of 2(S)-Amino-l-cyclohexyl-3(R),4(S)-dihydroxy-6-methylheptane]  0.24 nM

Same assay, conditions: human renal renin free from acid proteolytic activity, renin substrate human angiotensinogen, 37° C., pH 6.0

In order of falling IC50:
1. C[C@H](O)[C@H](O)[C@H](CC1CCCCC1)NC(=O)[C@H](Cc1c[nH]cn1)NC(=O)[C@H](Cc1ccccc1)NC(=O)OC(C)(C)C [Example 49, Boc-Phe-His Amide of 2(S)-Amino-l-cyclohexyl-3(R),4(S)-dihydroxypentane]  2 nM
2. CC(C)[C@H](O)[C@H](O)[C@H](CC1CCCCC1)NC(=O)[C@H](Cc1c[nH]cn1)NC(=O)[C@H](Cc1ccccc1)NC(=O)OC(C)(C)C [Example 46, Boc-Phe-His Amide of 2(S)-Amino-l-cyclohexyl-3(R),4(S)-dihydroxy-5-methylhexane]  1.5 nM
3. CCOC(=O)N[C@@H](Cc1ccc(OC)cc1)C(=O)N[C@@H](Cc1c[nH]cn1)C(=O)N[C@@H](CC1CCCCC1)[C@@H](O)[C@@H](O)CC(C)C [Example 22, Ethoxycarbonyl-(OCH3)Tyr-His Amide of 2(S)-Amino-1-cyclohexyl-3(R),4(S)-dihydroxy-6-methylheptane]  1.5 nM
4. CC(C)C[C@H](O)[C@H](O)[C@H](CC1CCCCC1)NC(=O)[C@H](Cc1c[nH]cn1)NC(=O)[C@H](Cc1ccccc1)NC(=O)N1CCNCC1 [Example 124, [(1-Piperazinyl)carbonyl]-Phe-His Amide of 2(S)-Amino-1-cyclohexyl-3(R),4(S)-dihydroxy-6-methylheptane Bis-Acetic Acid Salt]  0.65 nM
